According to patent US20240376097A1, “BCL-2 Inhibitor” (BeiGene Ltd., priority 2020, published 2024):
pIC50: −log10 of the molar value. Read-outs that look alike come from different tables or passages of the source.

Columns and labels:
[1] = target: Recombinant human Bcl-2 protein (Homo sapiens (Human), UniProt P10415); assay: Bcl-2 TR-FRET Assay; type: binding
Procedure, shortened: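 Displacement of FITC-labelled Bak peptide (0.5 nM) from 0.05 nM human Bcl-2, detected by TR-FRET with Tb-cryptate anti-6His antibody after 1 h at room temperature. Compounds, 10-point series, preincubated 0.5 h with protein in 20 mM potassium phosphate pH 7.5, 50 mM NaCl. IC50s fitted by four-parameter logistic.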

[2] = target: recombinant human Bcl-2 D103Y protein (Homo sapiens (Human), UniProt P10415, D103Y); assay: Bcl-2-D103Y Biochemical Assay (TR-FRET); type: binding; settings: for pIC50: TR-FRET, FITC labeled Bak peptide; for Ratio of Bcl-2 D103Y/Bcl-2 WT: ratio of IC50
recombinant human Bcl-2 D103Y protein, sequence (P10415 whole entry D103Y): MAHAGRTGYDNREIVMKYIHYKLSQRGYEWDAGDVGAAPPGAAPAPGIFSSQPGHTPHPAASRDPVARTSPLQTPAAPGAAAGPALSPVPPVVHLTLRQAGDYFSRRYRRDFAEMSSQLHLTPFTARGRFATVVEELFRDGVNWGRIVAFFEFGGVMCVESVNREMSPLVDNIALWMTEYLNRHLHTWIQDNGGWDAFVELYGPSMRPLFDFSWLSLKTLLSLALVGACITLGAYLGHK
Procedure, shortened: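 Compounds titrated against the Bcl-2 D103Y–ligand interaction; inhibition derived from the TR-FRET emission ratio 490 nm/520 nm after 337 nm excitation. Four-parameter logistic fitting gave IC50.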

[3] = system: RS4;11 (BCL-2 dependent acute lymphoblastic leukemia cell line); assay: RS4;11 Cell Proliferation Assay; type: cell-based; settings: Homo sapiens, RS4;11 cells, read-out: Cellular proliferation assay (IC50, nM) RS4
Procedure, shortened: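 Viability measured via CellTiter-Glo luminescence after a 48 h, 37 °C exposure to compounds (10 points, highest 1 μM). Seeding was 50,000 RS4;11 cells per well in 10% FBS RPMI-1640; IC50 given as mean.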

[4] = Bcl-2 wild type, TR-FRET, read-out: Biochemical assay (IC50, nM) Bcl-2 WT
[5] = wild type Bcl-2, unit inferred, read-out: Bcl-2 WT

Recombinant human Bcl-2 protein, sequence (P10415 whole entry): as the sequence (P10415 whole entry D103Y) above, with Y103D counted along it

## COc1cc(CN2CCN(C3CC4(CCN(c5ccc(C(=O)NS(=O)(=O)c6ccc(NC[C@H]7CC[C@](C)(O)CC7)c([N+](=O)[O-])c6)c(Oc6cnc7[nH]cc(F)c7c6)c5)CC4)C3)[C@H](c3ccccc3C(C)C)C2)cc2ccoc12 [Example 281, 2-((3-fluoro-1H-pyrrolo[2,3-b]pyridin-5-yl)oxy)-N-((4-((((1r,4r)-4-hydroxy-4-methylcyclohexyl)methyl)amino)-3-nitrophenyl)sulfonyl)-4-(2-((R)-2-(2-isopropylphenyl)-4-((7-methoxybenzofuran-5-yl)methyl)piperazin-1-yl)-7-azaspiro[3.5]nonan-7-yl)benzamide]
[1]; [4]
  IC50: 0.43 nM
[1]; [5]
  IC50: 0.43 nM
[2]
  pIC50: 9.29
  Ratio of Bcl-2 D103Y/Bcl-2 WT: 1.2
[3]
  IC50: 0.13 nM

## COc1cc(CN2CCN(C3CC4(CCN(c5ccc(C(=O)NS(=O)(=O)c6ccc(NC[C@H]7CC[C@](C)(O)CC7)c([N+](=O)[O-])c6)c(Oc6cnc7[nH]cc(F)c7c6)c5)CC4)C3)[C@H](c3ccccc3C(C)C)C2)cc2c1OCC2(C)C [Example 285, 2-((3-fluoro-1H-pyrrolo[2,3-b]pyridin-5-yl)oxy)-N-((4-((((1r,4r)-4-hydroxy-4-methylcyclohexyl)methyl)amino)-3-nitrophenyl)sulfonyl)-4-(2-((R)-2-(2-isopropylphenyl)-4-((7-methoxy-3,3-dimethyl-2,3-dihydrobenzofuran-5-yl)methyl)piperazin-1-yl)-7-azaspiro [3.5]nonan-7-yl)benzamide]
[1]; [4]
  IC50: 0.26 nM
[1]; [5]
  IC50: 0.26 nM
[2]
  pIC50: 9.31
  Ratio of Bcl-2 D103Y/Bcl-2 WT: 1.9
[3]
  IC50: 0.18 nM

## COc1cc(CN2CCN(C3CC4(C3)CN(c3ccc(C(=O)NS(=O)(=O)c5ccc(NC[C@H]6CC[C@](C)(O)CC6)c([N+](=O)[O-])c5)c(Oc5cnc6[nH]cc(F)c6c5)c3)C4)[C@H](c3ccccc3C(C)C)C2)cc2c1OCCC2 [Example 312, 2-((3-fluoro-1H-pyrrolo[2,3-b]pyridin-5-yl)oxy)-N-((4-((((1r,4r)-4-hydroxy-4-methylcyclohexyl)methyl)amino)-3-nitrophenyl)sulfonyl)-4-(6-((R)-2-(2-isopropylphenyl)-4-((8-methoxychroman-6-yl)methyl)piperazin-1-yl)-2-azaspiro[3.3]heptan-2-yl)benzamide]
[1]; [4]
  IC50: 0.094 nM
[1]; [5]
  IC50: 0.08 nM
[2]
  pIC50: 10.09
  Ratio of Bcl-2 D103Y/Bcl-2 WT: 1.0
[3]
  IC50: 0.27 nM

## COc1cc(CN2CCN(C3CC4(C3)CN(c3ccc(C(=O)NS(=O)(=O)c5ccc(NC[C@H]6CC[C@](C)(O)CC6)c([N+](=O)[O-])c5)c(Oc5cnc6[nH]cc(F)c6c5)c3)C4)[C@H](c3ccccc3C(C)C)C2)ccc1OC1CC1 [Example 321, 4-(6-((R)-4-(4-cyclopropoxy-3-methoxybenzyl)-2-(2-isopropylphenyl)piperazin-1-yl)-2-azaspiro[3.3]heptan-2-yl)-2-((3-fluoro-1H-pyrolo[2,3-b]pyridin-5-yl)oxy)-N-((4-((((1r,4r)-4-hydroxy-4-methylcyclohexy)methyl)amino)-3-nitrophenyl)sulfonyl)benzamide]
[1]; [4]
  IC50: 0.17 nM
[1]; [5]
  IC50: 0.17 nM
[2]
  pIC50: 9.85
  Ratio of Bcl-2 D103Y/Bcl-2 WT: 0.79
[3]
  IC50: 0.22 nM

## COc1cc(CN2CCN(C3CC4(C3)CN(c3ccc(C(=O)NS(=O)(=O)c5ccc(NC[C@H]6CC[C@](C)(O)CC6)c([N+](=O)[O-])c5)c(Oc5cnc6[nH]cc(F)c6c5)c3)C4)[C@H](c3ccccc3C(C)C)C2)cc2cc(C)oc12 [Example 338, 2-((3-fluoro-1H-pyrrolo[2,3-b]pyridin-5-yl)oxy)-N-((4-((((1r,4r)-4-hydroxy-4-methylcyclohexyl)methyl)amino)-3-nitrophenyl)sulfonyl)-4-(6-((R)-2-(2-isopropylphenyl)-4-((7-methoxy-2-methylbenzofuran-5-yl)methyl)piperazin-1-yl)-2-azaspiro[3.3]heptan-2-yl)benzamide]
[1]; [4]
  IC50: 0.59 nM
[1]; [5]
  IC50: 0.59 nM
[2]
  pIC50: 9.00
  Ratio of Bcl-2 D103Y/Bcl-2 WT: 1.7
[3]
  IC50: 0.11 nM

## COc1cc(CN2CCN(C3CC4(C3)CN(c3ccc(C(=O)NS(=O)(=O)c5ccc(NC[C@H]6CC[C@](C)(O)CC6)c([N+](=O)[O-])c5)c(Oc5cnc6[nH]cc(F)c6c5)c3)C4)[C@H](c3ccccc3C(C)C)C2)ccc1N1CCOCC1 [Example 361, 2-((3-fluoro-1H-pyrrolo[2,3-b]pyridin-5-yl)oxy)-N-((4-((((1r,4r)-4-hydroxy-4-methylcyclohexyl)methyl)amino)-3-nitrophenyl)sulfonyl)-4-(6-((R)-2-(2-isopropylphenyl)-4-(3-methoxy-4-morpholinobenzyl)piperazin-1-yl)-2-azaspiro[3.3]heptan-2-yl) benzamide]
[1]; [4]
  IC50: 0.051 nM
[1]; [5]
  IC50: 0.048 nM
[2]
  pIC50: 10.10
  Ratio of Bcl-2 D103Y/Bcl-2 WT: 1.6
[3]
  IC50: 0.09 nM
